# Experimental data from publication PMC9276676, “Difluoromethylornithine (DFMO) and AMXT 1501 inhibit capsule biosynthesis in pneumococci” (Scientific Reports, 2022).
# Test system: S. pneumoniae D39
# Format: cell-based, Streptococcus pneumoniae
# Description: This was done to directly compare possible changes in intracellular concentrations of polyamines and capsule precursors as a result of DFMO inhibition of polyamine synthesis to the earlier report where polyamine synthesis was affected via gene deletion in TIGR4[24]. […] Cells were harvested (5000×g, 10 min, 4 °C), re-suspended in extraction solvent [40% acetonitrile, 40% methanol, 20% water with formic acid (0.1 M)] and transferred to bead-beater tubes (MP Biomedicals, Irvine, CA, USA). Cells were lysed using a FastPrep-24™ Classic (45 s, 6.5 m/s, RT, 3 times) (MP Biomedicals, Irvine, CA, USA) and incubated on ice (5 min after each spin). TIGR4 lysates were clarified (6000×g, 5 min, 4 °C), and metabolite differentiation and detection were performed using published protocols[28],[29]. Liquid chromatography-mass spectrometry-based (LC–MS) metabolomic analysis was performed with an Agilent Accurate Mass 6230 TOF coupled with an Agilent 1290 LC system using a Cogent Diamond Hydride Type C column. Briefly, the mobile phase consisted of the following: solvent A (ddH2O with 0.2% formic acid) and solvent B (acetonitrile with 0.2% formic acid). The gradient used was as follows: 0–2 min, 85% B; 3–5 min, 80% B; 6–7 min, 75% B; 8–9 min, 70% B; 10–11.1 min, 50% B; 11.1–14 min 20% B; 14.1–24 min 5% B followed by a 10 min re-equilibration period at 85% B at a flow rate of 0.4 mL/min. Mass axis dynamics was calibrated by continuous infusion of a reference mass solution using an isocratic pump. […] Metabolite identities were searched for using a mass tolerance of < 0.005 Da. Metabolite concentrations from the 5 biological replicates were normalized to biomass based on measurement of residual peptide content in individual samples using the Pierce BCA Protein Assay kit (Thermo Fisher Scientific, Waltham, MA, USA). Data were analyzed using Profinder B.07.00 software (Agilent Technologies, Santa Clara, CA, USA). Extracted molecular features detected in the mass analyzer were identified using accurate mass values and used to generate empirical molecular formulae using an in-house metabolite database that included known intermediates, amino acid precursors and polyamines and their derivatives. Statistical analysis of metabolite peak intensity data was performed using MetaboAnalyst 4.0[30]. Data were normalized (quantile), log transformed and significant fold change between WT and DFMO-treated WT were identified by Student’s t-test (p ≤ 0.05).
# To measure the polyamines, glucose and glucuronic acid in D39, TSQ Quantum Access triple-quadrupole tandem mass spectrometer (Thermo Fisher Scientific, Waltham, MA, USA) equipped with acquity UPLC system (Waters, Milford, MA, USA) was operated in positive and negative ion mode. Chromatographic separation was performed on Cogent Diamond Hydride HPLC column (2.1 mm × 150 mm, 4 μm) coupled with Congent Diamond Hydride HPLC Guard column (2.0 mm × 10 mm, 4 μm). The flow rate was 500 µL/min, the sample injection volume was 10 µL, and the column temperature was at 40 °C. The mobile phase A was composed of water with 0.1% v/v formic acid, and mobile phase B was composed of acetonitrile with 0.1% v/v formic acid. The gradient condition was 0 min (5% A, 95% B), 1 min (5% A, 95% B), 4.0 min (30% A, 70% B), 6 min (95% A, 5% B), 6.5 min (95% A, 5% B), 7 min (5% A, 95% B), and 10 min (5% A, 95%B). The total run time was 10 min, and the column eluate directed into the mass spectrometer using an electrospray ionization interface in positive and negative modes. The MS conditions were set as follow: spray voltage = 3500 V, vaporizer temperature = 350 °C, sheath gas = 25 psi, auxiliary gas = 10 psi, and capillary temperature = 350 °C. Samples were run in selected reaction monitoring (SRM) mode, and the optimized MS/MS parameters for ionization are given in Table 1.
# [1] = DFMO 34 mM, agmatine 20 mM, AMXT 1501 7.4 µM, p-value in bracket omitted
compound,measurement,setting,value
"NCCC[C@](N)(C(=O)O)C(F)F [DFMO, α-difluoromethylornithine]",intracellular glucose (peak intensity),"1/8 MIC DFMO (34 mM), 1/2 MIC AMXT 1501 (7.4 µM)",significantly reduced
same,intracellular glucuronic acid (peak intensity),"1/8 MIC DFMO (34 mM), 1/2 MIC AMXT 1501 (7.4 µM), separately or in combination",significantly depleted
same,"Agmatine, fold change treated D39 /D39",[1],-1.3 (2.13E05)
same,"Cadaverine, fold change treated D39 /D39",[1],-0.8 (0.004)
same,"Lysine, fold change treated D39 /D39",[1],-0.2 (0.018)
same,"N-acetyl spermidine, fold change treated D39 /D39",[1],-0.6 (0.094)
same,"N-carbamoyl putrescine, fold change treated D39 /D39",[1],-1.6 (0.026)
same,"Ornithine, fold change treated D39 /D39",[1],0.4 (0.004)
same,"Putrescine, fold change treated D39 /D39",[1],-0.4 (0.015)
same,"Spermidine, fold change treated D39 /D39",[1],0.3 (0.309)
same,"Spermine, fold change treated D39 /D39",[1],-0.7 (0.002)
